Data published in article PMC6277375, “Pharmacological profile of the neuropeptide S receptor: Dynamic mass redistribution studies” (Pharmacology Research & Perspectives, 2018).
“And” between values parts separate entries of the source, which are not always exact repeats. Equal entries are not always repeated. Marks after values point to notes of the source that are not given here. Values belong to the compound of their own block, whether it stands above or below them. Numbered stars: 1 amine (or outer) side, 2 acyl side, 3 side chain; on linkers, the order of the positions; unused ones are H or OH. Bridge positions count the residues as written; N and C are the ends. Square brackets hold non-standard residues; d marks the D form. Peptide text beside a SMILES is read from it. * marks the point of attachment. Leu(3R-OH,Nα-propionyl) = CCC(=O)N[C@H](C(=O)*)[C@H](O)C(C)C; X1 = CC(C)[C@@H](O[*:3])[C@H](N[*:1])C(=O)[*:2]; NMeT = CN[C@H](C(=O)O)[C@@H](C)O; dPhLac = O=C(O)[C@H](O)Cc1ccccc1; NMeA = CN[C@@H](C)C(=O)O; NMeDha = C=C(NC)C(=O)O

Tests used:
[1] = target: T1, murine NPSR (Mus musculus, UniProt Q8BZP8); test: Dynamic mass redistribution (DMR) assay in HEK293mNPSR cells; assay type: cell-based; settings: for DMR response, HEK293mNPSR pm ± SEM: peak at 60 minute, mean ± SEM, duplicate
T1 construct: expressed in transfected cells
T1 sequence (Q8BZP8 1-371): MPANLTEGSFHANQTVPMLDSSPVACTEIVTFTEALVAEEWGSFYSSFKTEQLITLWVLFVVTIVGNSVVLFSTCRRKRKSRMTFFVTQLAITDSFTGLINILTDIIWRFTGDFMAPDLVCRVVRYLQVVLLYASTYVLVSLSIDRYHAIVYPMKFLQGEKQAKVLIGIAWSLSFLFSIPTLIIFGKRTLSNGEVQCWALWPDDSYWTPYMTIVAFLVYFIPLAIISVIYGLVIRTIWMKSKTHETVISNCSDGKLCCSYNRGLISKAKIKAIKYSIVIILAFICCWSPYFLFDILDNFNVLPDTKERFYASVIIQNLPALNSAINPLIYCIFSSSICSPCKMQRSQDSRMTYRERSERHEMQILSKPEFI
Procedure: (§1) HEK293 cells stably expressing the murine NPSR receptor (HEK293mNPSR) were described previously.3 Wild‐type HEK293 cells were used as a control. Cells were maintained in Dulbecco's Medium (DMEM) supplemented with 10% fetal bovine serum, 100 U/mL penicillin, 100 μg/mL streptomycin and, 2 mmol L^−1 L‐glutamine. The medium was complemented with 100 mg/L hygromycin for HEK293mNPSR. Cells were cultured at 37°C in 5% CO2 humidified air.
Confluent cells were subcultured using trypsin/EDTA and used for experiments. […] On the day of the experiment, cells were manually washed twice and maintained with assay buffer for 90 minutes before DMR experiments. DMR was monitored in real time with a temporal resolution of 22 seconds throughout the assay. Experiments were performed at 37°C, using an EnSight Multimode Plate Reader (PerkinElmer), that uses the Corning® Epic® Technology to measure the DMR signal. Agonism protocol: a 5‐minute baseline was first established, followed by adding compounds manually in a volume of 10 μL and recording compounds‐triggered DMR signal for 60 minute. Antagonism protocol: antagonists were added manually 25 minute before reading the 5‐minute baseline. After baseline establishment, NPS was injected and DMR signal was recorded for 60 minute. Antagonist properties of ligands were measured by assessing the concentration‐response curve to NPS in the absence and in presence of a fixed concentration of compound. FR900359 was added 60 minute before NPS, rolipram was incubated for 90 minute before NPS, while PTX was added 24 hours before NPS. Maximum picometer (pm) modifications (peak measured at 60 minute time point) were used to determine agonist response after baseline normalization.
All data were analyzed using Graph Pad Prism 6.0 (La Jolla, CA, USA). Concentration‐response curves were fitted using the four parameters log logistic equation. Data are expressed as mean ± SEM of n experiments performed in duplicate and were analyzed using one‐ or two‐way analysis of variance (ANOVA) followed by Dunnett's or Tukey's test for multiple comparisons wherever appropriate. […] Antagonists potencies were assayed at single concentrations against the concentration‐response curve to NPS and their pA2 was derived using the following equation: pA2 = log(CR − 1) − log[A], where CR is the ratio between agonist potency (EC50) in the presence and in absence of antagonist and [A] is the molar concentration of antagonist.

[2] = target: T1, murine NPSR; test: Calcium mobilization assay in HEK293mNPSR cells; assay type: cell-based; settings: FR900359 injected 24 minute before NPS, Fluo-4 AM, FlexStation II, 37°C
Procedure: Cells were seeded at a density of 50 000 cells/well in 100 μL into poly‐D‐lysine coated 96‐well black, clear‐bottom plates. The following day, cells were incubated with medium supplemented with 2.5 mmol L^−1 probenecid, 3 μmol L^−1 of the calcium sensitive fluorescent dye Fluo‐4 AM and 0.01% pluronic acid, for 30 minute at 37°C. Following this, the loading solution was aspirated and 100 μL of HBSS supplemented with 20 mmol L^−1 HEPES, 2.5 mmol L^−1 probenecid and 500 μmol L^−1 Brilliant Black were added. Cell culture and drug plates were placed into a fluorimetric imaging plate reader (FlexStation II, Molecular Devices, Sunnyvale, CA) and fluorescent changes were measured. On‐line additions were carried out in a volume of 50 μL/well. To facilitate drug diffusion into the wells, the present studies were performed at 37°C and three cycles of mixing (25 μL from each well moved up and down three times) were performed immediately after FR900359 injection to the wells. FR900359 was injected into the wells 24 minute before adding NPS.
All data were analyzed using Graph Pad Prism 6.0 (La Jolla, CA, USA). […] Data are expressed as mean ± SEM of n experiments performed in duplicate and were analyzed using one‐ or two‐way analysis of variance (ANOVA) followed by Dunnett's or Tukey's test for multiple comparisons wherever appropriate. […]

[3] = test system: HEK293mNPSR cells; test: DMR response to NECA with and without rolipram in HEK293mNPSR cells; assay type: cell-based; settings: NECA 10 μmol L^−1 + rolipram 10 μmol L^−1 (90 minute before), P < 0.05 vs NECA alone
Procedure: Confluent cells were subcultured using trypsin/EDTA and used for experiments. Cells were seeded at a density of 20 000 cells/well in 30 μL into fibronectin‐coated Enspire™‐LC 384‐wells plates and cultured for 20 hours to form a confluent monolayer. On the day of the experiment, cells were manually washed twice and maintained with assay buffer for 90 minutes before DMR experiments. DMR was monitored in real time with a temporal resolution of 22 seconds throughout the assay. Experiments were performed at 37°C, using an EnSight Multimode Plate Reader (PerkinElmer), that uses the Corning® Epic® Technology to measure the DMR signal. Agonism protocol: a 5‐minute baseline was first established, followed by adding compounds manually in a volume of 10 μL and recording compounds‐triggered DMR signal for 60 minute. Antagonism protocol: antagonists were added manually 25 minute before reading the 5‐minute baseline. After baseline establishment, NPS was injected and DMR signal was recorded for 60 minute. Antagonist properties of ligands were measured by assessing the concentration‐response curve to NPS in the absence and in presence of a fixed concentration of compound. […] Maximum picometer (pm) modifications (peak measured at 60 minute time point) were used to determine agonist response after baseline normalization. […]

[4] = test system: wild-type HEK293 cells; test: DMR assay in wild-type HEK293 cells (control); assay type: cell-based, Human; settings: ligand 10 μmol L^−1, 37°C, peak at 60 minute after baseline normalization, mean ± SEM, duplicate
Procedure: as §1
Confluent cells were subcultured using trypsin/EDTA and used for experiments. Cells were seeded at a density of 20 000 cells/well in 30 μL into fibronectin‐coated Enspire™‐LC 384‐wells plates and cultured for 20 hours to form a confluent monolayer. On the day of the experiment, cells were manually washed twice and maintained with assay buffer for 90 minutes before DMR experiments. DMR was monitored in real time with a temporal resolution of 22 seconds throughout the assay. Experiments were performed at 37°C, using an EnSight Multimode Plate Reader (PerkinElmer), that uses the Corning® Epic® Technology to measure the DMR signal. Agonism protocol: a 5‐minute baseline was first established, followed by adding compounds manually in a volume of 10 μL and recording compounds‐triggered DMR signal for 60 minute. Antagonism protocol: antagonists were added manually 25 minute before reading the 5‐minute baseline. After baseline establishment, NPS was injected and DMR signal was recorded for 60 minute. Antagonist properties of ligands were measured by assessing the concentration‐response curve to NPS in the absence and in presence of a fixed concentration of compound. FR900359 was added 60 minute before NPS, rolipram was incubated for 90 minute before NPS, while PTX was added 24 hours before NPS. Maximum picometer (pm) modifications (peak measured at 60 minute time point) were used to determine agonist response after baseline normalization.
All data were analyzed using Graph Pad Prism 6.0 (La Jolla, CA, USA). Concentration‐response curves were fitted using the four parameters log logistic equation. Data are expressed as mean ± SEM of n experiments performed in duplicate and were analyzed using one‐ or two‐way analysis of variance (ANOVA) followed by Dunnett's or Tukey's test for multiple comparisons wherever appropriate. Agonist potency was expressed as pEC50, which is the negative logarithm to base 10 of the agonist molar concentration that produces 50% of the maximal possible effect of that agonist. Antagonists potencies were assayed at single concentrations against the concentration‐response curve to NPS and their pA2 was derived using the following equation: pA2 = log(CR − 1) − log[A], where CR is the ratio between agonist potency (EC50) in the presence and in absence of antagonist and [A] is the molar concentration of antagonist.

[5] = test system: NPSR; settings: cited from earlier work
Description: The pharmacological profile of NPSR in the DMR assay has been investigated using several NPSR ligands acting as full and partial agonists and pure antagonists in the calcium mobilization assay. The DMR effects of these compounds solely derive from their capability to activate NPSR since we selected their concentration range based on lack of DMR signal in wild‐type cells. Overall, the DMR pharmacological profile of NPSR looks similar but not identical to that reported in literature using the calcium mobilization assay. The first aspect that deserves attention is related to the efficacy of NPSR ... || Regarding NPSR agonists, another point that must be addressed is the pharmacological behavior of PWT1‐NPS. […] The high in vitro potency of PWT1‐NPS was associated with a high in vivo potency and long‐lasting duration of action.31 These features seem to be common to PWT derivatives of other neuropeptides including nociceptin/orphanin FQ, opioids and tachykinins (reviewed in 40). In DMR experiments, we were not able to fully investigate the pharmacologic ...

Compound: C=C1C(=O)N[C@@H](C)C(=O)N(C)[C@@H](C)C(=O)N[C@@H]([C@H](OC(=O)[C@@H](NC(=O)CC)[C@H](O)C(C)C)C(C)C)C(=O)N(C)[C@@H]([C@@H](C)OC)C(=O)O[C@H](C(C)C)[C@H](NC(C)=O)C(=O)O[C@H](Cc2ccccc2)C(=O)N1C [FR900359, [(1R)‐1‐[(3S,6S,9S,12S,18R,21S,22R)‐21‐acetamido‐18‐benzyl‐3‐[(1R)‐1‐methoxyethyl]‐4,9,10,12,16‐pentamethyl‐15‐methylidene‐2,5,8,11,14,17,20‐heptaoxo‐22‐propan‐2‐yl‐1,19‐dioxa‐4,7,10,13,16‐pentazacyclodocos‐6‐yl]‐2‐methylpropyl] (2S,3R)‐3‐hydroxy‐4‐methyl‐2‐(propanoylamino)pentanoate, reference compound] (Ac-[X1][dPhLac][NMeDha]A[NMeA][X1](Leu(3R-OH,Nα-propionyl))[NMeT](Me); ester 1-C)
- Effect of inhibitor on NPS-evoked DMR response ([1]; FR900359 1 μmol L^−1 (60 minute before NPS), PTX 100 ng mL^−1 (24 hours before), rolipram 10 μmol L^−1 (90 minute before)): strongly, but not completely, reduced NPS effects
- Effect of inhibitor on NPS stimulated calcium mobilization [2]: completely abolished

Compound: CCNC(=O)[C@H]1O[C@@H](n2cnc3c(N)ncnc32)[C@H](O)[C@@H]1O [NECA, (2S,3S,4R,5R)‐5‐(6‐aminopurin‐9‐yl)‐N‐ethyl‐3,4‐dihydroxyoxolane‐2‐carboxamide, reference compound]
- DMR response of NECA in presence of rolipram [3]: 464 ± 58 pm
- DMR response, HEK293mNPSR pm ± SEM ([1]; ligand 10 μmol L^−1, 37°C): 229 ± 18 pm and 229 ± 18 ^a pm
- DMR response, HEK293 pm ± SEM [4]: 312 ± 28 ^a pm

- DMR response, HEK293mNPSR pm ± SEM ([1]; ligand 1 μmol L^−1, 37°C): 387 ± 43 pm and 387 ± 43 ^a pm
- DMR response as % of NPS maximal effect ([1]; ligand 1 μmol L^−1 alone): 58%
Compound: [D‐Cys(^tBu)^5]NPS
- behaviour in the calcium mobilization assay [5]: pure NPSR antagonist
